The values below come from ChEMBL document CHEMBL1158897, “New alkaloids from Cephalotaxus fortunei” (J Nat Prod, 2003).

This assay has as its system KB. The assay is described as follows: Cytotoxicity against human KB cells after 72 hrs by neutral red staining. The assay is classed as functional, cell-based.

Values after ≈ are worked out from the molar mass of the structure shown.

With `COC1=C[C@]23CCC[N@+]2([O-])CCc2cc4c(cc2[C@@H]3[C@@H]1O)OCO4`, half-maximal inhibition (IC50) required 30 µg/mL (≈ 90.5 µM).

In the case of `COC1=C[C@]23CCC[N@@+]2([O-])C[C@H](O)c2cc4c(cc2[C@@H]3[C@@H]1O)OCO4`, the IC50 came out at 31 µg/mL (≈ 89.2 µM).

For `COC1=C[C@]23CCC[N@@+]2([O-])CCc2cc4c(cc2[C@@H]3[C@@H]1O)OCO4`, the IC50 was 14 µg/mL (≈ 42.2 µM).

In turn, `COC1=C2c3cc4c(cc3CCN3CCC[C@]23CC1O)OCO4` (some centres undefined) [ISOCEPHALOTAXINE] showed an IC50 of 15 µg/mL (≈ 47.6 µM).

In general, IC50 refers to the concentration that inhibits the measured activity by half.
